pIC50: −log10 of the molar value. Where two headings read alike, the source gives them in different places.
Assays:
HIV-1 = experiment: anti-HIV-1 activity, standard plaque assay of a CEM-SS cell monolayer; format: cell-based; conditions: for pIC50: read-out: IC50 anti-HIV-1; for Diff. selectivity: quotient of cytotoxicity IC50 and anti-HIV 1 IC50
Procedure: (§1) The cell cytotoxicity and the anti-HIV-1-activity in CEM-SS cells of selected lipid alcohols are stated in table 1.
(§2) The cytotoxicity was determined by uptake of TdR-^3 H into the total DNA at various concentrations of the stated compounds. The anti-HIV 1 activity was determined using a standard plaque assay of a CEM-SS cell monolayer. The differential selectivity results from the quotient of the IC50 and anti-HIV 1 activity concentrations. ND means not determined.

[1] = cytotoxicity in CEM-SS cells by uptake of TdR-^3H into total DNA; format: cell-based; conditions: human, TdR-^3H uptake into total DNA, read-out: IC50 cytotoxicity
Procedure: as §1, §2

[2] = Human immunodeficiency virus 1, CEM-SS cell monolayer, plaque assay

| SMILES | pIC50 (HIV-1; [2]) | CC50 [1] | Diff. selectivity (HIV-1) | pIC50 (HIV-1; Human immunodeficiency virus 1, CEM-SS) |
| --- | --- | --- | --- | --- |
| CCCCCCCCCCCCOC(CO)CSCCCCCCCCCCCC (stereo not shown) [3-dodecylmercapto-2-dodecyloxy-1-propanol] | < 4.70 | > 100 µM | – | – |
| CCCCCCCCCCCCS(=O)(=O)CC(CO)OCCCCCCCCCC (stereo not shown) [3-dodecylsulfonyl-2-decyloxy-1-propanol] | 6.27 | 32.7 µM | 60.52 | – |
| CCCCCCCCCCCCSCC(CO)OCCCCCCCC (stereo not shown) [3-dodecylmercapto-2-octyloxy-1-propanol] | 5.15 | > 90.6 µM | > 12.92 | – |
| CCCCCCCCCCCCCCSCC(CO)OCCCCCCCCCC (stereo not shown) [3-tetradecylmercapto-2-decyloxy-1-propanol] | < 4.70 | > 100 µM | – | – |
| CCCCCCCCCCCC[S+]([O-])CC(CO)OCCCCCCCCCC (stereo not shown) [3-dodecylsulfinyl-2-decyloxy-1-propanol] | 6.74 | 36.8 µM | 204.22 | – |
| CCCCCCCCCCCOC(CO)CSCCCCCCCCCCC (stereo not shown) [3-undecylmercapto-2-undecyloxy-1-propanol] | 5.53 | > 100 µM | > 33.90 | – |
| CCCCCCCCCCOC(CO)CSCC(C)CCCCCCCCC (stereo not shown) [3-(2-methyl-undecyl)mercapto-2-decyloxy-1-propanol] | – | > 100 µM | > 1.95 | 4.29 |
